Values after ≈ are worked out from the molar mass of the structure shown.
Columns and labels:
[1] = tested on: Mycobacterium tuberculosis; experiment: Antimycobacterial activity against Mycobacterium tuberculosis H37Rv by agar dilution method; format: functional
Vero = experiment: Cytotoxicity against african green monkey Vero cells upto 62.5 ug/ml after 72 hrs by MTT assay; format: cell-based; settings: chlorocebus sabaeus

| Structure (SMILES) | MIC [1] [µM] | Activity (Vero) |
| --- | --- | --- |
| COc1cc2c(cc1OC)C1=NN(C(=O)Nc3ccc(F)c(Cl)c3)C(c3ccccc3)C1C2 (configuration not stated) | 6.25 (≈ 2.91 µg/mL) | Non-toxic |
| COc1ccc(C2C3Cc4cc(OC)c(OC)cc4C3=NN2C(=O)Nc2ccc(F)c(Cl)c2)cc1 (configuration not stated) | > 6.25 |  |
| COc1cc2c(cc1OC)C1=NN(C(=O)Nc3ccc(F)cc3)C(c3ccncc3)C1C2 (configuration not stated) | 3.12 (≈ 1.35 µg/mL) | Non-toxic |
| COc1cc2c(cc1OC)C1=NN(C(=O)Nc3ccc(F)cc3)C(c3ccccc3Cl)C1C2 (configuration not stated) | 6.25 (≈ 2.91 µg/mL) | Non-toxic |
| COc1cc2c(cc1OC)C1=NN(C(=O)Nc3ccc(F)cc3)C(c3ccc(F)cc3)C1C2 (configuration not stated) | 0.78 (≈ 0.351 µg/mL) | Non-toxic |
| COc1ccc(C2C3Cc4cc(OC)c(OC)cc4C3=NN2C(=O)Nc2ccc(F)cc2)cc1OC (configuration not stated) | > 10 | Non-toxic |
| COc1cc2c(cc1OC)C1=NN(C(=O)Nc3ccc(F)cc3)C(c3ccccc3)C1C2 (configuration not stated) | > 6.25 |  |
| COc1ccc(C2C3Cc4cc(OC)c(OC)cc4C3=NN2C(=O)Nc2ccc(F)cc2)cc1 (configuration not stated) | 10 (≈ 4.61 µg/mL) | Non-toxic |
| COc1cc2c(cc1OC)C1=NN(C(=O)Nc3ccc(Br)cc3)C(c3ccncc3)C1C2 (configuration not stated) | 6.25 (≈ 3.08 µg/mL) | Non-toxic |
| COc1cc2c(cc1OC)C1=NN(C(=O)Nc3ccc(Br)cc3)C(c3ccccc3Cl)C1C2 (configuration not stated) | > 6.25 |  |
| COc1cc2c(cc1OC)C1=NN(C(=O)Nc3ccc(Br)cc3)C(c3ccc(F)cc3)C1C2 (configuration not stated) | 3.12 (≈ 1.59 µg/mL) | Non-toxic |
| COc1ccc(C2C3Cc4cc(OC)c(OC)cc4C3=NN2C(=O)Nc2ccc(Br)cc2)cc1OC (configuration not stated) | > 10 | Non-toxic |
| COc1cc2c(cc1OC)C1=NN(C(=O)Nc3ccc(Br)cc3)C(c3ccccc3)C1C2 (configuration not stated) | > 6.25 |  |
| COc1ccc(C2C3Cc4cc(OC)c(OC)cc4C3=NN2C(=O)Nc2ccc(Br)cc2)cc1 (configuration not stated) | > 10 | Non-toxic |
| COc1cc2c(cc1OC)C1=NN(C(=O)Nc3ccc(F)c(Cl)c3)C(c3ccncc3)C1C2 (configuration not stated) | > 6.25 |  |
| COc1cc2c(cc1OC)C1=NN(C(=O)Nc3ccc(F)c(Cl)c3)C(c3ccccc3Cl)C1C2 (configuration not stated) | 6.25 (≈ 3.13 µg/mL) | Non-toxic |
| COc1cc2c(cc1OC)C1=NN(C(=O)Nc3ccc(F)c(Cl)c3)C(c3ccc(F)cc3)C1C2 (configuration not stated) | 0.78 (≈ 0.377 µg/mL) | Non-toxic |
| COc1ccc(C2C3Cc4cc(OC)c(OC)cc4C3=NN2C(=O)Nc2ccc(F)c(Cl)c2)cc1OC (configuration not stated) | > 6.25 |  |
| NNC(=O)c1ccncc1 [ISONIAZID] | 0.78 (≈ 0.107 µg/mL) |  |
| CO[C@H]1/C=C/O[C@@]2(C)Oc3c(C)c(O)c4c(O)c(c(/C=N/N5CCN(C)CC5)c(O)c4c3C2=O)NC(=O)/C(C)=C\C=C\[C@H](C)[C@H](O)[C@@H](C)[C@@H](O)[C@@H](C)[C@H](OC(C)=O)[C@@H]1C [RIFAMPIN] | 0.006 (≈ 0.00494 µg/mL) |  |
